18 compounds from patent US20250353853A1, “FLAVIVIRUS INHIBITORS” (IRBM S.P.A., priority 2022, published 2025) can be followed below.

In assay [1] the target is West Nile Virus (WNV) NS2B-NS3 protease (West Nile virus (WNV), UniProt P06935). The assay can be described thus: WNV Protease Inhibition Assay. The assay is classed as biochemical. The text has this:
WNV Protease Inhibition Assay

The subject of assay [2] is ZIKV replicon in Vero cells. Nature of the assay: ZIKV Replication Inhibition Assay (replicon, NanoLuc). The settings on record: Zika virus, Vero, 72 h, read-out: Zika Replicon EC50. On the technique in general: Replicon systems follow genome replication, usually without infectious particles.
Where [3] appears, read: 2 nM protease, 10 μM pERTKR-AMC substrate, read-out: WNV Protease IC50.

SMILES strings stand for the structures. Where two headings read alike, the source gives them in different places.

West Nile Virus (WNV) NS2B-NS3 protease, sequence (P06935 1502-1679 limits assumed): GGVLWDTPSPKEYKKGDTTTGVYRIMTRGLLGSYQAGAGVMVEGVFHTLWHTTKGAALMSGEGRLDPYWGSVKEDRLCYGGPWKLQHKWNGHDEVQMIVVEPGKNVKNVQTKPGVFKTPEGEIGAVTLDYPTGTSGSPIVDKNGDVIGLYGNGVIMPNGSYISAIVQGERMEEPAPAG
West Nile Virus (WNV) NS2B-NS3 protease, sequence (P06935 1371-1501 partner limits assumed): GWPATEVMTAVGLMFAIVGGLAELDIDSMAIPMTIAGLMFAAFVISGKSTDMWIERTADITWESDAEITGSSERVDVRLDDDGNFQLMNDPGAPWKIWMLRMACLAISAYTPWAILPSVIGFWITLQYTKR

With `O=C([N-]c1c[n+](Cc2ccc(-c3c(Cl)ncnc3Cl)cn2)no1)Nc1cccc(C(F)(F)F)c1` [Example 180, (3-((5-(4,6-dichloropyrimidin-5-yl)pyridin-2-yl)methyl)-1,2,3-oxadiazol-3-ium-5-yl)((3-(trifluoromethyl)phenyl)carbamoyl)amide], the IC50 in assay [1] (setting [3]) was under 0.1 µM. The EC50 in assay [2] was 1 to 20 µM.
Take `Cc1cnccc1-c1ccc(C[n+]2cc([N-]C(=O)Nc3cccc(C(F)(F)F)c3)on2)nc1` [Example 163, (3-((3′-methyl-[3,4′-bipyridin]-6-yl)methyl)-1,2,3-oxadiazol-3-ium-5-yl)((3-(trifluoromethyl)phenyl)carbamoyl)amide]: the IC50 in assay [1] was 0.1 to 1 µM. Besides, the EC50 in assay [2] is under 0.1 µM.
In the case of `Cc1ncnc(C)c1-c1cnc(C[n+]2cc([N-]C(=O)Nc3cccc(C(F)(F)F)c3)on2)nc1` [Example 183, (3-((4′,6′-dimethyl-[5,5′-bipyrimidin]-2-yl)methyl)-1,2,3-oxadiazol-3-ium-5-yl)((3-(trifluoromethyl)phenyl)carbamoyl)amide], in assay [1], the IC50 lay in the range of 0.1 to 1 µM. Also, the EC50 in assay [2] was under 0.1 µM.
As to `Cc1ncccc1-c1ccc(C[n+]2cc([N-]C(=O)Nc3cccc(C(F)(F)F)c3)on2)nc1` [Example 138, (3-((2′-methyl-[3,3′-bipyridin]-6-yl)methyl)-1,2,3-oxadiazol-3-ium-5-yl)((3-(trifluoromethyl)phenyl)carbamoyl)amide], in assay [1] (setting [3]), the IC50 was under 0.1 µM. The EC50 in assay [2] is under 0.1 µM.
With `O=C([N-]c1c[n+](Cc2ccc(-c3ccncc3)cc2)no1)Nc1cncc(C(F)(F)F)c1` [Example 67, (3-(4-(pyridin-4-yl)benzyl)-1,2,3-oxadiazol-3-ium-5-yl)((5-(trifluoromethyl)pyridin-3-yl)carbamoyl)amide], the IC50 in assay [1] is 0.1 to 1 µM. Also, the concentration for a half-maximal effect (EC50) in assay [2] is 0.1 to 1 µM.
For `COc1cc(-c2ccc(C[n+]3cc([N-]C(=O)Nc4cccc(C(F)(F)F)c4)on3)nc2)c(OC)nn1` [Example 181, (3-((5-(3,6-dimethoxypyridazin-4-yl)pyridin-2-yl)methyl)-1,2,3-oxadiazol-3-ium-5-yl)((3-(trifluoromethyl)phenyl)carbamoyl)amide], in assay [1], the IC50 fell in the range of 0.1 to 1 µM. Besides, in assay [2], the EC50 was under 0.1 µM.
On to `COc1ncc(-c2ccc(C[n+]3cc([N-]C(=O)Nc4cccc(C(F)(F)F)c4)on3)cc2)cn1` [Example 41, (3-(4-(2-methoxypyrimidin-5-yl)benzyl)-1,2,3-oxadiazol-3-ium-5-yl)((3-(trifluoromethyl)phenyl)carbamoyl)amide], for which the IC50 in assay [1] (setting [3]) is under 0.1 µM. Further, the EC50 in assay [2] is 0.1 to 1 µM.
The like results for `O=C([N-]c1c[n+](Cc2ccc(-c3ccnc(O)c3)cc2)no1)Nc1cccc(C(F)(F)F)c1` [Example 64, (3-(4-(2-hydroxypyridin-4-yl)benzyl)-1,2,3-oxadiazol-3-ium-5-yl)((3-(trifluoromethyl)phenyl)carbamoyl)amide] were, in that order, under 0.1 µM and 0.1 to 1 µM.
`Cc1noc(C)c1-c1ccc(C[n+]2cc([N-]C(=O)Nc3cc(F)cc(C(F)(F)F)c3)on2)nc1` [Example 153, (3-((5-(3,5-dimethylisoxazol-4-yl)pyridin-2-yl)methyl)-1,2,3-oxadiazol-3-ium-5-yl)((3-fluoro-5-(trifluoromethyl)phenyl)carbamoyl)amide] showed an IC50 in assay [1] of 0.1 to 1 µM. Besides, the EC50 in assay [2] was under 0.1 µM.
Regarding `COc1ncc(-c2ccc(C[n+]3cc([N-]C(=O)Nc4cccc(C(F)(F)F)c4)on3)nc2)c(C)n1` [Example 134, (3-((5-(2-methoxy-4-methylpyrimidin-5-yl)pyridin-2-yl)methyl)-1,2,3-oxadiazol-3-ium-5-yl)((3-(trifluoromethyl)phenyl)carbamoyl)amide], in assay [1] (setting [3]), the IC50 is under 0.1 µM. Also, the EC50 in assay [2] was under 0.1 µM.
For the compound `Cc1noc(C)c1-c1ccc(C[n+]2cc([N-]C(=O)Nc3cccc(C(F)(F)F)c3)on2)nn1` [Example 173, (3-((6-(3,5-dimethylisoxazol-4-yl)pyridazin-3-yl)methyl)-1,2,3-oxadiazol-3-ium-5-yl)((3-(trifluoromethyl)phenyl)carbamoyl)amide], the IC50 in assay [1] (setting [3]) was under 0.1 µM. Further, in assay [2], the EC50 was under 0.1 µM.
`Cc1cnn(C)c1-c1ccc(C[n+]2cc([N-]C(=O)Nc3ccnc(C(F)(F)F)c3)on2)nc1` [Example 175, (3-((5-(1,4-dimethyl-1H-pyrazol-5-yl)pyridin-2-yl)methyl)-1,2,3-oxadiazol-3-ium-5-yl)((2-(trifluoromethyl)pyridin-4-yl)carbamoyl)amide]: the IC50 in assay [1] (setting [3]) was under 0.1 µM. In addition, the EC50 in assay [2] is under 0.1 µM.
`Cc1noc(C)c1-c1ccc(C[n+]2cc([N-]C(=O)Nc3cccc(C4CC4)c3)on2)nc1` [Example 142, ((3-cyclopropylphenyl)carbamoyl)(3-((5-(3,5-dimethylisoxazol-4-yl)pyridin-2-yl)methyl)-1,2,3-oxadiazol-3-ium-5-yl)amide] returned an IC50 in assay [1] of 0.1 to 1 µM. Also, the EC50 in assay [2] lay in the range of 0.1 to 1 µM.
For `Cc1ncnc(C)c1-c1ccc(C[n+]2cc([N-]C(=O)Nc3cncc(C(F)(F)F)c3)on2)cc1` [Example 187, (3-(4-(4,6-dimethylpyrimidin-5-yl)benzyl)-1,2,3-oxadiazol-3-ium-5-yl)((5-(trifluoromethyl)pyridin-3-yl)carbamoyl)amide], the IC50 in assay [1] fell in the range of 0.1 to 1 µM. For the same compound, in assay [2], the EC50 was 1 to 20 µM.
In assay [1], `O=C([N-]c1c[n+](Cc2ccc(-c3c(F)cncc3F)cn2)no1)Nc1cccc(C(F)(F)F)c1` [Example 170, (3-((3′,5′-difluoro-[3,4′-bipyridin]-6-yl)methyl)-1,2,3-oxadiazol-3-ium-5-yl)((3-(trifluoromethyl)phenyl)carbamoyl)amide] came in with an IC50 of 0.1 to 1 µM. The EC50 in assay [2] is under 0.1 µM.
The like results for `Cc1cnncc1-c1ccc(C[n+]2cc([N-]C(=O)Nc3cncc(C(F)(F)F)c3)on2)nc1` [Example 128, (3-((5-(5-methylpyridazin-4-yl)pyridin-2-yl)methyl)-1,2,3-oxadiazol-3-ium-5-yl)((5-(trifluoromethyl)pyridin-3-yl)carbamoyl)amide] were, in that order, 0.1 to 1 µM and 1 to 20 µM.
The like results for `O=C([N-]c1c[n+](Cc2ccc(-c3cccnc3Cl)cn2)no1)Nc1cccc(C(F)(F)F)c1` [Example 172, (3-((2′-chloro-[3,3′-bipyridin]-6-yl)methyl)-1,2,3-oxadiazol-3-ium-5-yl)((3-(trifluoromethyl)phenyl)carbamoyl)amide] were, in that order, 0.1 to 1 µM and under 0.1 µM.
`O=C([N-]c1c[n+](C(c2ccccc2)C(F)(F)F)no1)Nc1cccc(C(F)(F)F)c1` (stereo not drawn) [Example 44, (3-(2,2,2-trifluoro-1-phenylethyl)-1,2,3-oxadiazol-3-ium-5-yl)((3-(trifluoromethyl)phenyl)carbamoyl)amide]: the IC50 in assay [1] was 1 to 20 µM. Besides, the EC50 in assay [2] was over 20 µM.

The term IC50 denotes the point on the concentration scale where inhibition reaches its midpoint. The EC50 is the concentration needed to bring the measured effect to its halfway point.
